Ends that are not written are not given here.
Assays:
[1] = system: TTSS-mediated lysis of sheep RBC by EPEC E2348/69; conditions: for inhibition of TTSS-mediated RBC lysis caused by E2348/69: peptide 0.56 mg/ml, bacteria preincubated with peptide 1 h, then 5% sheep RBC 3 h at 37°C, released hemoglobin OD 543 nm, relative to EPEC alone (100%), triplicate
Protocol: Twelve-well plates containing peptides and bacteria were incubated for 1 h to allow their interaction. A 5% suspension of RBC was then added, plates were incubated for another 3 h, and supernatants were monitored for released hemoglobin.
K12 means the hemolysis caused by the E. coli non-pathogenic strain. […] Each assay was done by triplicate.
The plates were incubated for 1 h under a 5% CO2 atmosphere to allow the interaction between peptides and bacteria. In turn, red blood cells (RBCs) were separated by centrifugation from fresh defibrinated sheep blood, which was obtained by jugular vein punction, washed three times with 10 mM PBS (pH 7.4) and resuspended at 5% in PBS. Then, 2 ml of the 5% suspension of RBC in PBS was added to the cultures in the plates and incubated for 3 h at 37°C under a 5% CO2 atmosphere. The suspension was removed from the plates and centrifuged at 12,000×g for 1 min. Supernatants were monitored for the presence of released hemoglobin by measuring the OD at 543 nm.

[2] = system: EspA filaments on EPEC E2348/69; test: Immunogold labeling and TEM of EspA filaments; type: cell-based, enteropathogenic E. coli (EPEC) E2348/69; conditions: EPEC incubated 4 h with peptide 0.56 mg/ml, fifty filaments, average with standard deviation, EPEC alone 700±150 nm
Protocol: Since coil peptides are able to inhibit the TTSS by blocking EspA polymerization, we expected a decrement in EspA filaments on the bacterial cell surface upon incubation with coil peptides.
Figure 6 CoilA peptide blocks the formation of EspA filaments. Immunogold EM of EspA filaments on EPEC cultures incubated either with or without CoilA peptide. After incubation of bacterial samples with specific rabbit anti-EspA serum, the samples were observed by TEM. EPEC alone, without peptides (A, C) and EPEC incubated with CoilA (B, D). Bars, 200 nm (A, B), or 100 nm (C, D). Yellow box frames show EspA filaments.
EPEC E2348/69 strain was grown in LB overnight at 37°C without shaking and diluted 1∶100 into DMEM with 0.56 mg/ml of either CoilA or CoilB, in 24-well plates. The plates were incubated for 4 h under a 5% CO2 atmosphere. A 50 µl droplet of bacterial culture was applied to nickel EM grids (mesh 200) coated with 0.25% Formvar resin (Structure Probe, Inc., SPI supplies, PA, USA) for 2 min. Cells were immediately fixed face down for 15 min with 0.1% buffered glutaraldehyde in PBS (pH 7.3). The grids were washed by transfer across 6 drops of PBS and blocked in PBS containing 0.2% bovine serum albumin for 30 min at room temperature. […] Fifty EspA filaments were identified and the size was measured the length is given as an average with a standard deviation.

[3] = system: EspA, EspB, EspD and Tir secretion by EPEC E2348/69; test: In vitro TTSS protein secretion, Western blot of culture supernatants and bacterial lysates; type: cell-based, enteropathogenic E. coli (EPEC) E2348/69; conditions: EPEC incubated 4 h in DMEM with peptide 0.56 mg/ml; for secretion of EspD, Western blot: protein detected in pellet of lysed bacteria
Protocol: EPEC E2348/69 bacterial cultures were incubated in the presence of CoilA or CoilB peptides and concentrated supernatants and bacterial extracts were analyzed by Western blotting using specific antisera directed to EspA, EspB, EspD or Tir. The same amount of cell monolayer was loaded in each lane. pH represents a mock control to rule out the biological influence of alkaline pH used to dissolve peptides. PBS at alkaline pH was used in volumes identical to those in which peptides were added to cultures.
In order to determine the effect of syntethic peptides in the production and excretion of TTSS-proteins by EPEC, cellular and supernatants culture extracts of peptide-treated bacteria were subjected to western blot analysis with specific antisera. The E2348/69 strain grown overnight at 37°C in LB was diluted 1∶100 into 2 ml of DMEM containing CoilA or CoilB peptides at a concentration of 0.56 mg/ml, respectively, and cultured for another 4 h in the presence of 5% CO2. After collecting by centrifugation, bacteria were suspended in 2X SDS sample buffer and boiled for 5 min. The proteins present in culture supernatants were precipitated by the addition of trichloroacetic acid at 20% (wt/vol) and incubated overnight at 4°C. The protein precipitates were then collected by centrifugation at 20,000×g for 25 min, washed twice with 200 µl of ice-cold acetone and resuspended in 20 µl Tris-HCl 10 mM pH 8.8. Whole-cell extracts and culture supernatants were then analyzed by Western blotting using polyclonal rabbit antibodies against EspA, EspB, EspD and Tir recombinant proteins as described by Vilte et al. Primary antibodies were detected with horseradish peroxidase-conjugated goat anti-rabbit IgG (Sigma Chemical Co., St. Louis, MO) diluted 1∶10,000.

[4] = system: EPEC E2348/69 adhering to HEp-2 cells; test: Fluorescent actin staining (FAS), A/E lesion / pedestal formation in HEp-2 cells; type: cell-based, enteropathogenic E. coli (EPEC) E2348/69; conditions: peptide 0.56 mg/ml preincubated 1 h with EPEC, MOI 7, 2 h infection, 100 cells examined; EPEC without peptides 80%
Description: Since CoilA, CoilB and CoilD were able to inhibit the hemolysis caused by EPEC, which could involve translocator proteins at cell membrane level, we decided to explore whether peptides were also able to block effector proteins delivery and thus prevent the formation of A/E lesions in epithelial cells. Thus, peptides interfering in actin polymerization beneath E2348/69 strain adhering to HEp-2 cells were visualized by FAS (fluorescent actin staining). As expected, EPEC bacteria were able to induce actin polymerization for pedestal formation in almost all the cells (Fig. 2A), the A/E lesions were not seen in uninfected cells (Fig. 2B). CoilA or CoilB preincubation with EPEC caused a decrease in pedestal formation in epithelial cells, showing different effectiveness (Fig. 2C and Fig. 2D).
Figure 2 Coiled-coil peptides inhibit A/E lesion formation caused by EPEC. HEp-2 cells were incubated with EPEC E2348/69 either with or without coiled-coil peptides. […] Incubation of HEp-2 cells with the wild type EPEC E2348/69 strain without peptides (EPEC WT); preincubated with CoilA (EPEC+CoilA), or CoilB (EPEC+CoilB) peptide and uninfected cells. The corresponding percentage of HEp-2 cells carrying pedestals, obtained by examining 100 cells, is shown in panel E. EPEC pH represents a mock control to rule out the biological influence of alkaline pH used to dissolve peptides; PBS at alkaline pH was used in volumes identical to those in which peptides were added to HEp-2 cells.
HEp-2 cells (5×10^4) were seeded in eight well chamber slides (NUNC, Lab-Tek, USA) and incubated at 37°C under a 5% CO2 atmosphere up to 70–90% confluence. Overnight LB culture of the EPEC E2348/69 strain was diluted 1∶20 into 3 ml of DMEM and cultured for 1 h. CoilA, CoilB or CoilD peptides were then added to the culture at a concentration of 0.56 mg/ml and allowed to interact with the bacteria for 1 h at 37°C under a 5% CO2 atmosphere. […] The cells were observed under fluorescence microscopy with a confocal laser microscope (Leica TC SP2).

[5] = system: EspA and Tir associated to HEp-2 cells infected with EPEC E2348/69; test: Western blot of EPEC-secreted proteins associated to HEp-2 cells; type: cell-based, enteropathogenic E. coli (EPEC) E2348/69; conditions: HEp-2 cells treated 2 h with EPEC preincubated with peptide, washed, lysed
Protocol: To further determine the effect of CoilA and CoilB on EspA polymerization and Tir translocation were also examined by Western blotting. For that, HEp-2 cells were treated for 2 h with either EPEC alone or preincubated with each of the peptides and exhaustively washed. Cell extracts were prepared and the contents of EspA and Tir (Fig. 4) analyzed by Western blot using specific antibodies. […] The effective amount of EspA and Tir associated per cell may be even higher in non-treated (without peptides) cell cultures because it could be underestimated as some HEp-2 cells are detached from the surface upon infection. The pH buffering solution used to dilute CoilA and CoilB peptides had no effect and the results were similar to the positive control (Fig. 4).
Figure 4 CoilA and CoilB peptides block EspA polymerization and Tir translocation. Cell monolayers were infected with bacteria pretreated with peptides, washed, and lysed for Western blot detection of EspA and Tir proteins with specific rabbit antisera. pH represents a mock control to rule out the biological influence of alkaline pH used to dissolve peptides; PBS at alkaline pH was used in a volume identical to those in which peptides were added to HEp-2 cells.
(§1) HEp-2 monolayers were inoculated with bacteria pretreated with CoilA or CoilB peptides as described for fluorescent actin staining. After infection, the supernatant was removed from the plates and serial dilutions were cultured overnight at 37°C on LB agar plates to determine the viability of bacteria. In turn, the monolayers were resuspended in 40 µl of lysis buffer (1% Triton X-100) and protease inhibitor mix (Complete™ protease inhibitors, Roche). This material was subjected to Western blotting as mentioned above.

[6] = system: EPEC adherence to HEp-2 cells; test: Non-adherent bacteria in supernatant of infected HEp-2 cells, HEp-2 detaching; type: cell-based, enteropathogenic E. coli (EPEC) E2348/69; conditions: data not shown; for non-adherent bacteria in the supernatant of HEp-2 cells vs EPEC without peptides: EPEC preincubated with peptide; for HEp-2 detaching activity (cytopathic effect) by EPEC: bacteria preincubated with peptide
Protocol: (§2) For that, HEp-2 cells were treated with EPEC preincubated either with or without CoilA or CoilB, and EspA and Tir were then visualized using specific antibodies and confocal microscopy.
as §1

[7] = system: EspA polymerization and Tir translocation by EPEC E2348/69; test: Immunofluorescence of EspA and Tir on infected HEp-2 cells (confocal microscopy); type: cell-based, enteropathogenic E. coli (EPEC) E2348/69; conditions: bacteria preincubated with peptide 0.56 mg/ml
Protocol: as §2

[8] = Solubilization of peptides in PBS pH 10.0 / precipitation; type: physicochemical
Protocol: CoilA, CoilB, CoilC, CoilD and PepTir peptides were synthesized commercially (Genbiotech, Buenos Aires). Peptides were solubilized with PBS (pH 10.0). […] EPEC E2348/69 [42] was kindly provided by Marta Rivas, ANLIS-Instituto Nacional de Microbiología Dr. Carlos G. Malbrán, Buenos Aires. […] Bacteria were grown in Luria Bertani broth (LB) or Dulbecco's modified Eagle medium (DMEM) lacking phenol red (Gibco-BRL), without antibiotics and bovine fetal serum at 37°C without shaking.

| Sequence | inhibition of TTSS-mediated RBC lysis caused by E2348/69 [1] | hemolysis at reduced peptide concentration ([1]; peptide 0.15 mg/ml, preincubated with EPEC E2348/69, sheep RBC, relative to EPEC alone) | EspA filament length [2] | secretion of EspB to the culture supernatant, Western blot [3] | secretion of Tir in vitro, Western blot [3] | secretion of EspD, Western blot [3] | HEp-2 cells showing pedestals [4] | Tir in the cells, Western blot [5] | amount of EspA associated to the cells and attached bacteria (incl. EspA polymers), Western blot [5] | non-adherent bacteria in the supernatant of HEp-2 cells vs EPEC without peptides [6] | HEp-2 detaching activity (cytopathic effect) by EPEC [6] | secreted EspA (immunofluorescence) ([7]; anti-EspA sera) | translocated Tir (immunofluorescence) ([7]; anti-Tir sera) | tendency to precipitate / aggregation ([8]; observed in preparation for electron micrographs) | solubility in PBS (pH 10.0) ([8]; peptides solubilized with PBS pH 10.0) |
| --- | --- | --- | --- | --- | --- | --- | --- | --- | --- | --- | --- | --- | --- | --- | --- |
| KVNIDENGNAI [PepTir] | did not show inhibitory activity | – | – | – | – | – | – | – | – | – | – | – | – | – | – |
| LSDSVPELLNSTDLV [CoilC] | did not show inhibitory activity | – | – | – | – | – | – | – | – | – | – | – | – | – | – |
| LTTTVNNSQLEIQQM [CoilA] | around 95% | 50% | about 250±50 nm | not clearly observed | lightly decreased | affected | 20% | significant decrease | drastically decreased | 7 fold | absent | drastic decrease | drastic decrease | – | – |
| MSNTLNLLTSARSDM [CoilB] | around 95% | – | – | blocked the secretion of EspB | lightly decreased | affected | 2% | significant decrease | drastically decreased | 40 fold | absent | – | – | tendency to precipitate forming clumps | not completely soluble |
| VNDPEKMLELQFAVQ [CoilD] | 25% | – | – | – | – | – | unable to inhibit pedestal formation | – | – | – | – | – | – | – | – |

— PMC2816223, “Designed Coiled-Coil Peptides Inhibit the Type Three Secretion System of Enteropathogenic Escherichia coli” (PLoS ONE, 2010)
